Here are results for ten molecules from patent US20120053053A1, “PYRIMIDINE DERIVATIVES AND THEIR USE AS HERBICIDES” (SYNGENTA CROP PROTECTION, LLC, priority 2009, published 2012).

The structures appear in SMILES notation.

Format in all cases: in vivo
The test system of test [1] is Setaria faberi (SETFA). In words: Pre-emergence biological efficacy (percentage damage). To be noted: Setaria faberi, 312 h, dose 1,000 g/ha, evaluated after 13 days, 100=total damage, 0=no damage. The method, boiled down: (§1)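 Sow seeds in pots of standard soil; hold 1 day in glasshouse (24/16 °C, 14 h light, 65% humidity). Spray aqueous solution from acetone/water (50:50) with 0.5% Tween 20 at 250 or 1000 g/ha. Grow on, watering twice daily; rate damage at 13 days.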

Test [2] deals with Ipomea hederaceae (IPOHE). The test is described as above. The following applies: Ipomoea hederacea, 312 h, dose 1,000 g/ha, evaluated after 13 days, 100=total damage, 0=no damage. The method, boiled down: as §1
In test [3] the test system is Echinochloa crus-galli (ECHCG). Described as above. The following applies: Echinochloa crus-galli, 312 h, dose 1,000 g/ha, evaluated after 13 days, 100=total damage, 0=no damage. Summed up: as §1
Test [4] relates to Amaranthus retoflexus (AMARE). The test is described as above. The following applies: Amaranthus retroflexus, 312 h, dose 1,000 g/ha, evaluated after 13 days, 100=total damage, 0=no damage. The method, boiled down:
as §1

For test [5], the system named is Alopecurus myosuroides (ALOMY). The test is described as above. The following applies: Alopecurus myosuroides, 312 h, dose 1,000 g/ha, evaluated after 13 days, 100=total damage, 0=no damage. The method, boiled down: as §1
In test [6] the test system is Solanum nigrum (SOLNI). The description is as above. The following applies: Solanum nigrum, 312 h, dose 1,000 g/ha, evaluated after 13 days, 100=total damage, 0=no damage. Summed up: as §1
Test [7] deals with Setaria faberi (SETFA). Put plainly: Post-emergence biological efficacy (percentage damage). The following applies: Setaria faberi, 312 h, dose 1,000 g/ha, evaluated after 13 days, 100=total damage, 0=no damage. Summed up:
(§2)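 Applied rates: 250 or 1000 g/ha, sprayed from acetone/water (50:50) with 0.5% Tween 20 onto plants 8 days after sowing. Visual damage rating 13 days later on a 0–100 scale.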

Test [8] concerns Ipomea hederaceae (IPOHE). The description is as above. To be noted: Ipomoea hederacea, 312 h, dose 1,000 g/ha, evaluated after 13 days, 100=total damage, 0=no damage. Summed up:
as §2

In test [9] the test system is Echinochloa crus-galli (ECHCG). The test is described as above. To be noted: Echinochloa crus-galli, 312 h, dose 1,000 g/ha, evaluated after 13 days, 100=total damage, 0=no damage. Summed up:
as §2

The test system of test [10] is Amaranthus retoflexus (AMARE). The test is described as above. To be noted: Amaranthus retroflexus, 312 h, dose 1,000 g/ha, evaluated after 13 days, 100=total damage, 0=no damage. The method, boiled down: as §2
The test system of test [11] is Alopecurus myosuroides (ALOMY). The description is as above. The following applies: Alopecurus myosuroides, 312 h, dose 1,000 g/ha, evaluated after 13 days, 100=total damage, 0=no damage. The method, boiled down:
as §2

Test [12] concerns Solanum nigrum (SOLNI). The description is as above. To be noted: Solanum nigrum, 312 h, dose 1,000 g/ha, evaluated after 13 days, 100=total damage, 0=no damage. The method, boiled down:
as §2

For the molecule `C=Cc1c(N)nc(-c2ccc(Cl)c(C(F)(F)F)c2)nc1C(=O)OC` [Compound 14-61, 4-Amino-2-(4-chloro-3-trifluoromethyl-phenyl)-5-ethenyl-6-methoxycarbonyl-pyrimidine], the pest or weed control (as a rule, how far the test organism was held down) at 1000 g/ha turned out to be 10% in test [1]; 10% in test [2]; 20% in test [3]; 60% in [4]; 10% in [5]; 40% in [6]. The pest or weed control at 1000 g/ha in test [7] worked out at 0%; in [8] it was 40%; in [9] it was 0%; in test [10], 10%; in test [11] it was 0%; in test [12], 80%.

As for `C=Cc1c(N)nc(-c2ccc(Cl)cc2F)nc1C(=O)OC` [Compound 15-61, 4-Amino-2-(4-chloro-2-fluorophenyl)-5-ethenyl-6-methoxycarbonyl-pyrimidine], the pest or weed control at 1000 g/ha turned out to be 70% in test [1]; 100% in test [2]; 70% in [3]; 100% in test [4]; 80% in test [5]; 100% in test [6]. The pest or weed control at 1000 g/ha is 70% in [7]; 80% in test [8]; 70% in test [9]; 100% in [10]; 90% in test [11]; 100% in test [12].

On to `C=Cc1c(N)nc(-c2ccc(Cl)c(F)c2)nc1C(=O)OC` [Compound 19-61, 4-Amino-2-(4-chloro-3-fluorophenyl)-5-ethenyl-6-methoxycarbonyl-pyrimidine], for which the pest or weed control at 1000 g/ha in test [1] came out at 30%; in [2] it was 100%; in test [3], 70%; in test [4], 100%; in test [5] it was 50%; in test [6], 100%. In addition, the pest or weed control at 1000 g/ha stood at 40% in test [7]; 100% in [8]; 60% in [9]; 100% in [10]; 40% in [11]; 100% in test [12].

For `C=Cc1c(N)nc(-c2ccc(Cl)c(OC)c2)nc1C(=O)OC` [Compound 26-61, 4-Amino-2-(4-chloro-3-methoxyphenyl)-5-ethenyl-6-methoxycarbonyl-pyrimidine], the pest or weed control at 1000 g/ha in test [1] amounted to 0%; in test [2] it was 20%; in test [3], 0%; in test [4], 100%; in [5], 0%; in test [6], 80%. For the same molecule, the pest or weed control at 1000 g/ha in test [7] is 0%; in test [8], 70%; in test [9], 60%; in test [10], 100%; in test [11], 50%; in test [12], 80%.

`C=Cc1c(N)nc(-c2ccc(Cl)c(OC)c2F)nc1C(=O)O` [Compound 27-21, 4-amino-2-(4-chloro-2-fluoro-3-methoxyphenyl)-5-ethenylpyrimidine-6-carboxylic acid]: the pest or weed control at 1000 g/ha was found to be 100% in [1]; 100% in [2]; 100% in test [3]; 100% in test [4]; 90% in test [5]; 100% in test [6]. Besides, the pest or weed control at 1000 g/ha in test [7] is 100%; in test [8] it was 90%; in [9] it was 90%; in test [10] it was 100%; in test [11] it was 90%; in [12] it was 90%.

`COC(=O)c1nc(-c2ccc(Cl)c(OC)c2F)nc(N)c1C` [Compound 27-41]: the pest or weed control at 1000 g/ha in [1] amounted to 10%; in test [2], 90%; in [3], 20%; in test [4], 50%; in test [5] it was 30%; in test [6], 80%. In addition, the pest or weed control at 1000 g/ha in [7] came out at 80%; in test [8], 60%; in [9], 50%; in test [10] it was 100%; in test [11] it was 30%; in test [12] it was 80%.

On to `COC(=O)c1nc(-c2ccc(Cl)c(OC)c2F)nc(N)c1C(C)=O` [Compound 27-53, 4-Amino-2-(4-chloro-2-fluoro-3-methoxy-phenyl)-6-methoxycarbonyl-5-methylcarbonyl-pyrimidine], for which the pest or weed control at 1000 g/ha in [1] is 10%; in test [2], 100%; in test [3], 20%; in test [4], 90%; in test [5], 20%; in [6], 100%. The pest or weed control at 1000 g/ha was 40% in test [7]; 60% in test [8]; 30% in test [9]; 100% in test [10]; 30% in test [11]; 90% in test [12].

With `C=Cc1c(N)nc(-c2ccc(Cl)c(OC)c2F)nc1C(=O)OC` [Compound 27-61, 4-Amino-2-(4-chloro-2-fluoro-3-methoxyphenyl)-5-ethenyl-6-methoxycarbonyl-pyrimidine], the pest or weed control at 1000 g/ha in test [1] was found to be 90%; in test [2], 90%; in test [3], 90%; in test [4], 100%; in [5], 90%; in [6] it was 100%. Also, the pest or weed control at 1000 g/ha in test [7] was 100%; in test [8] it was 80%; in test [9] it was 90%; in test [10], 100%; in [11], 90%; in [12], 80%.

On to `C=C(C)c1c(N)nc(-c2ccc(Cl)c(OC)c2F)nc1C(=O)OC` [Compound 27-63, 4-Amino-2-(4-chloro-2-fluoro-3-methoxyphenyl)-6-methoxycarbonyl-5-(prop-1-en-2-yl)-pyrimidine], for which the pest or weed control at 1000 g/ha in test [1] was determined as 50%; in test [2], 100%; in test [3], 80%; in [4], 100%; in test [5], 50%; in [6] it was 100%. The pest or weed control at 1000 g/ha came out at 90% in test [7]; 90% in test [8]; 70% in [9]; 100% in test [10]; 60% in test [11]; 90% in test [12].

As for `C=C(OCC)c1c(N)nc(-c2ccc(Cl)c(OC)c2F)nc1C(=O)OC` [Compound 27-67], the pest or weed control at 1000 g/ha in test [1] came to 10%; in test [2] it was 40%; in [3] it was 20%; in [4], 30%; in test [5], 20%; in [6], 100%. Further, the pest or weed control at 1000 g/ha in [7] came to 10%; in test [8], 60%; in test [9] it was 10%; in test [10], 40%; in [11], 0%; in test [12], 80%.
